# Measured values reported in article PMC5046073, “Prediction and evaluation of the lipase inhibitory activities of tea polyphenols with 3D-QSAR models” (Scientific Reports, 2016).
# pIC50: −log10 of the molar value.
# Target: T1, pancreatic lipase (Sus scrofa, UniProt P00591)
# T1 construct: gene PNLIP
# T1 sequence (P00591 1-450): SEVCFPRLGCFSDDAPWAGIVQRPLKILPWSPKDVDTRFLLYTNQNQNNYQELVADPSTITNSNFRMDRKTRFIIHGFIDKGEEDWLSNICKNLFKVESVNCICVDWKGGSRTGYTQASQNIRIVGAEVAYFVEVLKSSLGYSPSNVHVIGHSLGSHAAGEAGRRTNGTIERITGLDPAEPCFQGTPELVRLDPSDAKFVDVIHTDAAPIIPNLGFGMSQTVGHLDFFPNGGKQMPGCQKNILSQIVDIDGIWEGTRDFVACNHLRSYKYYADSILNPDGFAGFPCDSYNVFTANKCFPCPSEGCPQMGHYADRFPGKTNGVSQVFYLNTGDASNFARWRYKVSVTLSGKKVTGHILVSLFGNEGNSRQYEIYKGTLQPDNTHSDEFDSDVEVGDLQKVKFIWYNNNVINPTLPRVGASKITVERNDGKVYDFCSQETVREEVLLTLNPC
# Assay: biochemical
# Conditions: not given
row,Compound,pIC50
1,"Oc1cc(O)c2c(c1)O[C@H](c1ccc(O)c(O)c1)[C@@H](O)[C@@H]2c1c(O)cc(O)c2c1O[C@H](c1ccc(O)c(O)c1)[C@H](O)C2 [compound 25, procyanidin B4]",4.76
2,"Oc1cc(O)c2c(c1)O[C@H](c1ccc(O)c(O)c1)[C@@H](O)[C@@H]2c1c(O)cc(O)c2c1O[C@H](c1ccc(O)c(O)c1)[C@@H](O)C2 [compound 24, procyanidin B3]",5.48
3,"O=C(O[C@@H]1Cc2c(O)cc(O)cc2O[C@H]1c1cc(O)c(O)c(O)c1)c1cc(O)c(O)c(O)c1 [compound 6, (−)-gallocatechin-3-O-gallate (GCG)]",6.24
4,"O=C(/C=C/c1ccc(O)cc1)O[C@@H]1Cc2c(O)cc(O)cc2O[C@@H]1c1cc(O)c(O)c(O)c1 [compound 10, (−)-epigallocatechin-3-O-p-coumaroate]",6.01
5,"Oc1cc(O)c2c(c1)O[C@H](c1ccc(O)c(O)c1)[C@H](O)[C@H]2c1c(O)cc(O)c2c1O[C@H](c1ccc(O)c(O)c1)[C@H](O)C2 [compound 23, procyanidin B2]",5.06
6,"COc1cc(C(=O)O[C@@H]2Cc3c(O)cc(O)cc3O[C@@H]2c2ccc(O)c(O)c2)cc(O)c1O [compound 9, (−)-epicatechin 3-O-(3′-O-methyl)-gallat]",6.13
7,"Oc1cc(O)c2c(c1)O[C@H](c1cc(O)c(O)c(O)c1-c1c([C@H]3Oc4cc(O)cc(O)c4C[C@H]3O)cc(O)c(O)c1O)[C@H](O)C2 [compound 37, theasinensin C]",4.79
8,"Oc1cc(O)c2c(c1)O[C@H](c1ccc(O)c(O)c1)[C@@H](O)[C@@H]2c1c(O)cc(O)c2c1O[C@H](c1cc(O)c(O)c(O)c1)[C@H](O)C2 [compound 16, (+)-catechin (4α-8) (−)-epigallocatechin]",5.06
9,"O=C(O[C@@H]1Cc2c(O)cc(O)cc2O[C@@H]1c1ccc(O)cc1)c1cc(O)c(O)c(O)c1 [compound 15, (−)-epiafzelechin 3-O-gallate]",5.55
10,"O=C(O[C@@H]1Cc2c(O)cc(O)cc2O[C@@H]1c1cc(O)c(O)c(O)c1-c1c([C@H]2Oc3cc(O)cc(O)c3C[C@H]2O)cc(O)c(O)c1O)c1cc(O)c(O)c(O)c1 [compound 36, theasinensin B]",6.52
11,"Oc1cc(O)c2c(c1)O[C@H](c1cc(O)c(O)c(O)c1)[C@H](O)[C@H]2c1c(O)cc(O)c2c1O[C@H](c1cc(O)c(O)c(O)c1)[C@H](O)C2 [compound 27, prodelphinidin B2]",5.49
12,"Oc1cc(O)c2c(c1)O[C@H](c1cc(O)c(O)c(O)c1)[C@@H](O)[C@@H]2c1c(O)cc(O)c2c1O[C@H](c1cc(O)c(O)c(O)c1)[C@H](O)C2 [compound 30, prodelphinidin B4]",5.16
13,"Oc1cc(O)c2c(c1)O[C@H](c1ccc(O)c(O)c1)[C@H](O)C2 [compound 3, (−)-epicatechin (EC)]",< 4.52

# Same assay, conditions: inhibitor
row,Compound,pIC50
1,"O=C(O[C@@H]1[C@@H](c2c(O)cc(O)c3c2O[C@H](c2ccc(O)c(O)c2)[C@H](OC(=O)c2cc(O)c(O)c(O)c2)C3)c2c(O)cc(O)cc2O[C@@H]1c1cc(O)c(O)c(O)c1)c1cc(O)c(O)c(O)c1 [compound 14, (−)-epigallocatechin-3-O-gallate-(4β-8)-(−)-epicatechin 3-O-gallate]",6.16
2,"O=C(O[C@@H]1[C@@H](c2c(O)cc(O)c3c2O[C@H](c2cc(O)c(O)c(O)c2)[C@H](OC(=O)c2cc(O)c(O)c(O)c2)C3)c2c(O)cc(O)cc2O[C@@H]1c1ccc(O)c(O)c1)c1cc(O)c(O)c(O)c1 [compound 13, (−)-epicatechin-3-O-gallate-(4β-8)-(−)-epigallocatechin3-O-gallate]",6.03
3,"O=C(OC1Cc2c(O)cc(O)c(C(c3cc(O)c(O)c(O)c3)C(Cc3c(O)cc(O)cc3O)OC(=O)c3cc(O)c(O)c(O)c3)c2OC1c1cc(O)c(O)c(O)c1)c1cc(O)c(O)c(O)c1 (centres unmarked) [compound 1, assamicain A]",6.89
4,"O=C(O[C@@H]1Cc2c(O)cc(O)c([C@H]3c4c(O)cc(O)cc4O[C@H](c4ccc(O)c(O)c4)[C@@H]3O)c2O[C@@H]1c1cc(O)c(O)c(O)c1)c1cc(O)c(O)c(O)c1 [compound 11, (−)-epicatechin(4β-8)-(−)-epigallocatechin 3-O-gallate]",6.80
5,"O=C(O[C@@H]1Cc2c(O)cc(O)c([C@@H]3c4c(O)cc(O)cc4O[C@H](c4ccc(O)c(O)c4)[C@H]3O)c2O[C@@H]1c1cc(O)c(O)c(O)c1)c1cc(O)c(O)c(O)c1 [compound 17, (+)-catechin (4α-8) (−)-epigallocatechin 3-O-gallate]",6.72
6,"O=C(O[C@@H]1Cc2c(O)cc(O)c([C@H]3c4c(O)cc(O)cc4O[C@H](c4cc(O)c(O)c(O)c4)[C@@H]3O)c2O[C@@H]1c1ccc(O)c(O)c1)c1cc(O)c(O)c(O)c1 [compound 12, (−)-epigallocatechin (4β-8)-(−)-epicatechin-3-O-gallate]",5.91

# Target: T1, pancreatic lipase
# Assay: fluorescent 4-MU oleate hydrolysis assay, type VI-S pancreatic lipase
# Type: biochemical
# Conditions: not given
row,Compound,pIC50
1,"O=C(OC1Cc2c(O)cc(O)c(Cc3c(O)cc(O)c4c3OC(c3cc(O)c(O)c(O)c3)C(OC(=O)c3cc(O)c(O)c(O)c3)C4)c2OC1c1cc(O)c(O)c(O)c1)c1cc(O)c(O)c(O)c1 (centres unmarked) [compound 20, oolonghomobisflavan A]",6.96
2,"O=C(Oc1cc(O)cc2c1C[C@@H](OC(=O)c1cc(O)c(O)c(O)c1)[C@@H](c1cc(O)c(O)c(O)c1)O2)c1cc(O)c(O)c(O)c1 [compound 8, (−)-epigallocatechin-3,5-di-O-gallate]",6.96
3,"O=C(O[C@@H]1[C@@H](c2c(O)cc(O)c3c2O[C@H](c2cc(O)c(O)c(O)c2)[C@H](OC(=O)c2cc(O)c(O)c(O)c2)C3)c2c(O)cc(O)cc2O[C@@H]1c1cc(O)c(O)c(O)c1)c1cc(O)c(O)c(O)c1 [compound 29, prodelphinidin B2-3,3′-di-O-gallate]",7.00
4,(−)-epigallocatechin-3-O-gallate [compound 7],6.41
5,(−)-epicatechin-3-O-gallate [compound 4],6.47
6,"O=C(O[C@@H]1Cc2c(O)cc(O)cc2O[C@@H]1c1cc(O)c(O)c2c(=O)c(O)cc([C@H]3Oc4cc(O)cc(O)c4C[C@H]3O)cc12)c1cc(O)c(O)c(O)c1 [compound 33, theaflavin-3′-O-gallate]",6.89
7,"O=C(O[C@@H]1Cc2c(O)cc(O)cc2O[C@@H]1c1cc(O)c(O)c(O)c1-c1c([C@H]2Oc3cc(O)cc(O)c3C[C@H]2OC(=O)c2cc(O)c(O)c(O)c2)cc(O)c(O)c1O)c1cc(O)c(O)c(O)c1 [compound 35, theasinensin A]",6.82
